Numbered stars: 1 amine (or outer) side, 2 acyl side, 3 side chain; on linkers, the order of the positions; unused ones are H or OH. Square brackets hold non-standard residues; d marks the D form. Peptide text beside a SMILES is read from it. * marks the point of attachment. X3 = NC[C@H](OC(=O)C(F)(F)F)[C@H](N[*:1])C(=O)[*:2]; Phe(4-COOH) = N[C@@H](Cc1ccc(C(=O)O)cc1)C(=O)O; Phe(4-Cl) = N[C@@H](Cc1ccc(Cl)cc1)C(=O)O; Dab(3S-OH) = NC[C@H](O)[C@H](N)C(=O)O; X5 = O=C(C(N[*:1])c1cccs1)[*:2]; ΔZArg = N=C(N)NCC/C=C(\N)C(=O)O; Lys(Me) = CNCCCC[C@H](N)C(=O)O; dOrn = NCCC[C@@H](N)C(=O)O; Orn = NCCC[C@H](N)C(=O)O; Nva = CCC[C@H](N)C(=O)O; NH(CH2)4NH2 = NCCCCN*; NHiPr = CC(C)N*
Legend:
Assay in all cases: MIC, broth microdilution (CLSI), reference strain
Conditions in all cases: CAMHB
[1] = test system: Staphylococcus aureus ATCC 13709
[2] = test system: Acinetobacter baumannii ATCC 19606
[3] = test system: Escherichia coli ATCC 25922
[4] = test system: Pseudomonas aeruginosa ATCC 27853

| Structure (SMILES) | Sa: MIC Staphylococcus aureus ATCC 13709 [1] | Ab: MIC Acinetobacter baumannii ATCC 19606 [2] | Ec: MIC Escherichia coli ATCC 25922 [3] | Pa: MIC Pseudomonas aeruginosa ATCC 27853 [4] |
| --- | --- | --- | --- | --- |
| CNCCCC[C@H](N)C(=O)N[C@H](C(=O)N[C@@H](C)C(=O)NCC(=O)N[C@H](CCCN)C(=O)N1CCC[C@H]1C(=O)N[C@@H](Cc1ccc(Cl)cc1)C(=O)N[C@@H](CCCCN)C(=O)N/C(=C\CCNC(=N)N)C(=O)O)[C@@H](O)CN [24.148] (H-[Lys(Me)][Dab(3S-OH)]AG[dOrn]P[Phe(4-Cl)]K[ΔZArg]-OH) | ++ (≤8 μg/mL) | − (>32 μg/mL) | ++ (≤8 μg/mL) | − (>32 μg/mL) |
| CNCCCC[C@H](N)C(=O)N[C@H](C(=O)N[C@@H](C)C(=O)NCC(=O)N[C@H](CCCN)C(=O)N1CCC[C@H]1C(=O)N[C@@H](Cc1cnc[nH]1)C(=O)N[C@@H](CCCCN)C(=O)N/C(=C\CCNC(=N)N)C(=O)O)[C@@H](O)CN [24.149] (H-[Lys(Me)][Dab(3S-OH)]AG[dOrn]PHK[ΔZArg]-OH) | + (≤32 μg/mL) | − (>32 μg/mL) | + (≤32 μg/mL) | − (>32 μg/mL) |
| C[C@H](NC(=O)[C@@H](NC(=O)[C@@H](N)CCCN)[C@@H](O)CN)C(=O)NCC(=O)N[C@H](CCCN)C(=O)N1CCC[C@H]1C(=O)N[C@@H](Cc1cnc[nH]1)C(=O)N[C@@H](CCCCN)C(=O)N/C(=C\CCNC(=N)N)C(N)=O [24.150] (H-[Orn][Dab(3S-OH)]AG[dOrn]PHK[ΔZArg]-NH2) | ++ (≤8 μg/mL) | − (>32 μg/mL) | + (≤32 μg/mL) | − (>32 μg/mL) |
| CNCCCC[C@H](NC(=O)[C@H](Cc1cnc[nH]1)NC(=O)[C@@H]1CCCN1C(=O)[C@@H](CCCN)NC(=O)CNC(=O)[C@H](C)NC(=O)[C@@H](NC(=O)[C@@H](N)CCCCN)[C@@H](O)CN)C(=O)N[C@H](CCCNC(=N)N)C(N)=O [24.155] (H-K[Dab(3S-OH)]AG[dOrn]PH[Lys(Me)][dR]-NH2) | ++ (≤8 μg/mL) | − (>32 μg/mL) | − (>32 μg/mL) | − (>32 μg/mL) |
| C[C@H](NC(=O)[C@@H](NC(=O)[C@@H](N)CCCCN)[C@@H](O)CN)C(=O)NCC(=O)N[C@H](CCCN)C(=O)N1CCC[C@H]1C(=O)NC(C(=O)N[C@@H](CCCCN)C(=O)N/C(=C\CCNC(=N)N)C(=O)O)c1cccs1 (stereo partly drawn) [24.157] (H-K[Dab(3S-OH)]AG[dOrn]P[X5]K[ΔZArg]-OH) | + (≤32 μg/mL) | − (>32 μg/mL) | − (>32 μg/mL) | − (>32 μg/mL) |
| C[C@H](NC(=O)[C@@H](NC(=O)[C@@H](N)CCCCN)[C@@H](O)CN)C(=O)NCC(=O)N[C@H](CCCN)C(=O)N1CCC[C@H]1C(=O)N[C@@H](C)C(=O)N[C@@H](CCCCN)C(=O)N/C(=C\CCNC(=N)N)C(=O)O [24.158] (H-K[Dab(3S-OH)]AG[dOrn]PAK[ΔZArg]-OH) | + (≤32 μg/mL) | − (>32 μg/mL) | − (>32 μg/mL) | − (>32 μg/mL) |
| COC(=O)/C(=C/CCNC(=N)N)NC(=O)[C@H](CCCCN)NC(=O)[C@H](Cc1cnc[nH]1)NC(=O)[C@@H]1CCCN1C(=O)[C@@H](CCCN)NC(=O)CNC(=O)[C@H](C)NC(=O)[C@@H](NC(=O)[C@@H](N)CCCCN)[C@@H](O)CN [24.160] (H-K[Dab(3S-OH)]AG[dOrn]PHK[ΔZArg]-OMe) | ++ (≤8 μg/mL) | − (>32 μg/mL) | ++ (≤8 μg/mL) | − (>32 μg/mL) |
| C[C@H](NC(=O)[C@@H](NC(=O)[C@@H](N)CCCCN)[C@@H](O)CN)C(=O)NCC(=O)N[C@H](CCCN)C(=O)N1CCC[C@H]1C(=O)N[C@@H](Cc1ccc(C(=O)O)cc1)C(=O)N[C@@H](CCCCN)C(=O)N/C(=C\CCNC(=N)N)C(=O)O [24.161] (H-K[Dab(3S-OH)]AG[dOrn]P[Phe(4-COOH)]K[ΔZArg]-OH) | ++ (≤8 μg/mL) | − (>32 μg/mL) | ++ (≤8 μg/mL) | − (>32 μg/mL) |
| CC(C)NC(=O)/C(=C/CCNC(=N)N)NC(=O)[C@H](CCCCN)NC(=O)[C@H](Cc1cnc[nH]1)NC(=O)[C@@H]1CCCN1C(=O)[C@@H](CCCN)NC(=O)CNC(=O)[C@H](C)NC(=O)[C@@H](NC(=O)[C@@H](N)CCCCN)[C@@H](O)CN [24.162] (H-K[Dab(3S-OH)]AG[dOrn]PHK[ΔZArg]-NHiPr) | ++ (≤8 μg/mL) | − (>32 μg/mL) | + (≤32 μg/mL) | − (>32 μg/mL) |
| C[C@@H](O)[C@H](NC(=O)[C@@H](NC(=O)[C@@H](N)CCCCN)[C@@H](O)CN)C(=O)NCC(=O)N[C@H](CCCN)C(=O)N1CCC[C@H]1C(=O)N[C@@H](Cc1cnc[nH]1)C(=O)N[C@@H](CCCCN)C(=O)N/C(=C\CCNC(=N)N)C(=O)O [25.3] (H-K[Dab(3S-OH)]TG[dOrn]PHK[ΔZArg]-OH) | + (≤32 μg/mL) | − (>32 μg/mL) | + (≤32 μg/mL) | − (>32 μg/mL) |
| N=C(N)NCC/C=C(\NC(=O)[C@H](CCCCN)NC(=O)[C@H](Cc1cnc[nH]1)NC(=O)[C@@H]1CCCN1C(=O)[C@@H](CCCN)NC(=O)CNC(=O)[C@H](CO)NC(=O)[C@@H](NC(=O)[C@@H](N)CCCCN)[C@@H](O)CN)C(=O)N[C@@H](CCCCN)C(=O)NCCCCN [26.1] (H-K[Dab(3S-OH)]SG[dOrn]PHK[ΔZArg]K-{NH(CH2)4NH2}) | ++ (≤8 μg/mL) | + (≤32 μg/mL) | ++ (≤8 μg/mL) | ++ (≤8 μg/mL) |
| N=C(N)NCC/C=C(\NC(=O)[C@H](CCCCN)NC(=O)[C@H](Cc1cnc[nH]1)NC(=O)[C@@H]1CCCN1C(=O)[C@@H](CCCN)NC(=O)CNC(=O)[C@H](CO)NC(=O)[C@@H](NC(=O)[C@@H](N)CCCCN)[C@@H](O)CN)C(=O)O [26.2] (H-K[Dab(3S-OH)]SG[dOrn]PHK[ΔZArg]-OH) | + (≤32 μg/mL) | − (>32 μg/mL) | + (≤32 μg/mL) | − (>32 μg/mL) |
| CC(C)C[C@H](NC(=O)[C@@H](NC(=O)[C@@H](N)CCCCN)[C@@H](O)CN)C(=O)NCC(=O)N[C@H](CCCN)C(=O)N1CCC[C@H]1C(=O)N[C@@H](Cc1cnc[nH]1)C(=O)N[C@@H](CCCCN)C(=O)N/C(=C\CCNC(=N)N)C(=O)N[C@@H](CCCCN)C(=O)NCCCCN [29.1] (H-K[Dab(3S-OH)]LG[dOrn]PHK[ΔZArg]K-{NH(CH2)4NH2}) | + (≤32 μg/mL) | − (>32 μg/mL) | − (>32 μg/mL) | − (>32 μg/mL) |
| N=C(N)NCC/C=C(\NC(=O)[C@H](CCCCN)NC(=O)[C@H](Cc1cnc[nH]1)NC(=O)[C@@H]1CCCN1C(=O)[C@@H](CCCN)NC(=O)CNC(=O)[C@@H](NC(=O)[C@@H](NC(=O)[C@@H](N)CCCCN)[C@H](CN)OC(=O)C(F)(F)F)[C@@H](O)CN)C(=O)N[C@@H](CCCCN)C(=O)NCCCCN [32.1] (H-K[X3][Dab(3S-OH)]G[dOrn]PHK[ΔZArg]K-{NH(CH2)4NH2}) | ++ (≤8 μg/mL) | − (>32 μg/mL) | + (≤32 μg/mL) | − (>32 μg/mL) |
| CCC[C@H](NC(=O)[C@@H](NC(=O)[C@@H](N)CCCCN)[C@@H](O)CN)C(=O)NCC(=O)N[C@H](CCCN)C(=O)N1CCC[C@H]1C(=O)N[C@@H](Cc1cnc[nH]1)C(=O)N[C@@H](CCCCN)C(=O)N/C(=C\CCNC(=N)N)C(=O)N[C@@H](CCCCN)C(=O)NCCCCN [210.1] (H-K[Dab(3S-OH)][Nva]G[dOrn]PHK[ΔZArg]K-{NH(CH2)4NH2}) | ++ (≤8 μg/mL) | − (>32 μg/mL) | − (>32 μg/mL) | − (>32 μg/mL) |
| N=C(N)NCC/C=C(\NC(=O)[C@H](CCCCN)NC(=O)[C@H](Cc1cnc[nH]1)NC(=O)[C@@H]1CCCN1C(=O)[C@@H](CCCN)NC(=O)CNC(=O)[C@H](CCCN)NC(=O)[C@@H](NC(=O)[C@@H](N)CCCCN)[C@@H](O)CN)C(=O)N[C@@H](CCCCN)C(=O)NCCCCN [211.1] (H-K[Dab(3S-OH)][Orn]G[dOrn]PHK[ΔZArg]K-{NH(CH2)4NH2}) | ++ (≤8 μg/mL) | + (≤32 μg/mL) | ++ (≤8 μg/mL) | ++ (≤8 μg/mL) |
